Legend:
[1] = Stability of compounds in simulated gastric fluid (SGF); type: in vitro ADME; conditions: simulated gastric fluid (3 mg/mL pepsin), incubation time 6 hr, relative to t=0
Method: (§1) Test compounds were incubated at […] in simulated gastric fluid (SGF; standard USP solution with 3 mg/mL pepsin) or simulated intestinal fluid (SIF; standard USP solution with 3 mg/mL pancreatin) for 3 hr or 6 hr. HPLC-UV or HPLC-MS were used to determine test compound levels using peak area %. Results (Table 14) were reported as the percentage of test compound remaining after incubation in a given condition relative to test compound present at t=0 in the same condition.

rat NaP2b (SLC34A2) = biological target: T1, rat NaP2b (SLC34A2) (Rattus norvegicus, UniProt Q9JJ09); test: Inhibition of NaP2b-mediated Pi (33P) uptake in transfected HEK293 cells, rat NaP2b; type: cell-based; conditions: 33P Pi uptake, 0.1 mM phosphate, value given as pIC50 range
T1 construct: host or cells: HEK293
T1 sequence (Q9JJ09 1-695): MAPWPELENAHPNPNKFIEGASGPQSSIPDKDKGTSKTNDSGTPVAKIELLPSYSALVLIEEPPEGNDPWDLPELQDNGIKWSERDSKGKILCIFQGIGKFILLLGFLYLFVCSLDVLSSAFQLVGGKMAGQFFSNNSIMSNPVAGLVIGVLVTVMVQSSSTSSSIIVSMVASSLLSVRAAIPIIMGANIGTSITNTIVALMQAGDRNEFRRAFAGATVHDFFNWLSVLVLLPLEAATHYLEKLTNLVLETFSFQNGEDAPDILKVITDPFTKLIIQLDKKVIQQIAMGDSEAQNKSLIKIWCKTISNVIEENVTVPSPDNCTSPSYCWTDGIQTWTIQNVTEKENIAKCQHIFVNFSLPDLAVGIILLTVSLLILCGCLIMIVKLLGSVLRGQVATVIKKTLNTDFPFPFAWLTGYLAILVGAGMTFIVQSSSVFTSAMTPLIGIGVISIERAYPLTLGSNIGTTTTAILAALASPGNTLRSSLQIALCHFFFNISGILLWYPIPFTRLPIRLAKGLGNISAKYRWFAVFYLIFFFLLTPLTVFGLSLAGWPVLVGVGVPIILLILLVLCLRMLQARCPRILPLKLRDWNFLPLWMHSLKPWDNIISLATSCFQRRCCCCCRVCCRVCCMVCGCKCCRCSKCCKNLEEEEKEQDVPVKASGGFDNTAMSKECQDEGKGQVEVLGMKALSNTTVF
How it was run: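 The cells transiently expressed NaP2b after Lipofectamine transfection. Each compound was run in duplicate over twelve concentrations, 0.1 nM–30 uM.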

[2] = Determination of compound Cmax and AUC after oral gavage (plasma LC-MS/MS); type: in vivo, Sprague-Dawley rats; conditions: Sprague-Dawley, rat, plasma, po, Structure (I) examples, Table 15, actual oral dose 3-15 mg/kg, plasma 0.5-4 h
How it was run: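 Plasma exposure measured by LC-MS/MS after acetonitrile precipitation with internal standard, quantified against a standard curve made in plasma. Compound given orally by gavage to Sprague-Dawley rats at nominal 2.5 or 10 mg/kg, with K2EDTA plasma sampled at 0.5, 1, 2 and 4 h.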

[3] = Stability of compounds in simulated intestinal fluid (SIF); type: in vitro ADME; conditions: simulated intestinal fluid (3 mg/mL pancreatin), incubation time 6 hr, relative to t=0
Method: as §1

Compound | % remaining, SGF [1] | IC50 (rat NaP2b (SLC34A2)) [µM] | AUC [2] [ng·h/mL] | Cmax [2] [ng/mL] | % remaining, SIF [3]
O=C(NCc1cccc(C(F)(F)F)c1)c1ccnc(-c2cc(N3CCCCC3)ccc2NC(=O)c2cccc(CSCCOCCOCCOCCOCCC(=O)N(CCO)CCO)c2)c1 [Example 151, 2-(2-(3-(20-hydroxy-18-(2-hydroxyethyl)-17-oxo-5,8,11,14-tetraoxa-2-thia-18-azaicosyl)benzamido)-5-(piperidin-1-yl)phenyl)-N-(3-(trifluoromethyl)benzyl)isonicotinamide] | >80% | 1 to 7.94 | < 10 | < 10 | 40-60%
CCN(CC)c1ccc(NC(=O)c2cccc(CSCCOCCOCCOCCOCCC(=O)NCCOCCOCCOCCOCCOCCOCCOCCOC)c2)c(-c2cc(C(=O)N[C@H]3CCCc4ccccc43)ccn2)c1 [Example 157.1, (S)-2-(5-(diethylamino)-2-(3-(27-oxo-2,5,8,11,14,17,20,23,30,33,36,39-dodecaoxa-42-thia-26-azatritetracontan-43-yl)benzamido)phenyl)-N-(1,2,3,4-tetrahydronaphthalen-1-yl)isonicotinamide] | >80% | 1 to 7.94 | < 30 | < 10 | >80%
CCN(CC)c1ccc(NC(=O)c2cccc(CSCCOCCOCCOCCOCCC(=O)NCCOCCOCCOCCOCCOCCOCCOCCOC)c2)c(-c2cc(C(=O)NCc3cccc(C(F)(F)F)c3)ccn2)c1 [Example 165, 2-(5-(diethylamino)-2-(3-(27-oxo-2,5,8,11,14,17,20,23,30,33,36,39-dodecaoxa-42-thia-26-azatritetracontan-43-yl)benzamido)phenyl)-N-(3-(trifluoromethyl)benzyl)isonicotinamide] | >80% | 1 to 7.94 | < 30 | < 10 | >80%
O=C(O)CCOCCOCCOCCOCCCc1cccc(C(=O)Nc2ccc(OC3CCC3)cc2-c2cc(C(=O)N[C@H]3CCCc4ccccc43)ccn2)c1 [Example 285, (S)-16-(3-((4-cyclobutoxy-2-(4-((1,2,3,4-tetrahydronaphthalen-1-yl)carbamoyl)pyridin-2-yl)phenyl)carbamoyl)phenyl)-4,7,10,13-tetraoxahexadecan-1-oic acid] | 60-80% | < 1 | < 50 | < 30 | >80%
O=C(NCc1cccc(C(F)(F)F)c1)c1ccnc(-c2cc(N3CCCCC3)ccc2NC(=O)c2cccc(CSCCOCCOCCOCCOCCC(=O)N3CCN(CCOCCO)CC3)c2)c1 [Example 147] | >80% | 1 to 7.94 | < 10 | < 10 | >80%
CN(CCN1CCOCC1)C(=O)CCOCCOCCOCCOCCSCc1cccc(C(=O)Nc2ccc(N3CCCCC3)cc2-c2cc(C(=O)NCc3cccc(C(F)(F)F)c3)ccn2)c1 [Example 150, 2-(2-(3-(18-methyl-20-morpholino-17-oxo-5,8,11,14-tetraoxa-2-thia-18-azaicosyl)benzamido)-5-(piperidin-1-yl)phenyl)-N-(3-(trifluoromethyl)benzyl)isonicotinamide] | >80% | 10 to 31.6 | < 10 | < 10 | >80%
CN(CCOCCOCCOCCC(=O)O)C(=O)c1cccc(C(=O)Nc2ccc(N3CCCCC3)cc2-c2cc(C(=O)NCc3cccc(C(F)(F)F)c3)ccn2)c1 [Example 248, 3-[2-(2-{2-[N-methyl-1-(3-{[4-(piperidin-1-yl)-2-[4-({[3-(trifluoromethyl)phenyl]methyl}carbamoyl)pyridin-2-yl]phenyl}carbamoyl}phenyl)formamido]ethoxy}ethoxy)ethoxy]propanoic acid] | >80% | 10 to 31.6 | < 10 | < 10 | >80%

Further lines, results first:

% remaining, SGF [1] | IC50 (rat NaP2b (SLC34A2)) [µM] | AUC [2] [ng·h/mL] | Cmax [2] [ng/mL] | % remaining, SIF [3] | Compound
>80% | 10 to 31.6 | < 10 | < 10 | >80% | CN(CCN1CCC[C@H]1C(=O)N(C)CCOCCOCCOCCC(=O)O)C(=O)c1cccc(C(=O)Nc2ccc(N3CCCCC3)cc2-c2cc(C(=O)N[C@H]3CCCc4ccccc43)ccn2)c1 [Example 191, 2-Methyl-1-((S)-1-(2-(N-methyl-3-((4-(piperidin-1-yl)-2-(4-(((S)-1,2,3,4-tetrahydronaphthalen-1-yl)carbamoyl)pyridin-2-yl)phenyl)carbamoyl)benzamido)ethyl)pyrrolidin-2-yl)-1-oxo-5,8,11-trioxa-2-azatetradecan-14-oic acid]
>80% | 1 to 7.94 | < 50 | < 30 | >80% | COCCOCCOCCOCCOCCOCCOCCN(C)CCN(C)C(=O)c1cccc(C(=O)Nc2ccc(N3CCCCC3)cc2-c2cc(C(=O)N[C@H]3CCCc4ccccc43)ccn2)c1 [Example 333, (S)—N^1-Methyl-N^1-(23-methyl-2,5,8,11,14,17,20-heptaoxa-23-azapentacosan-25-yl)-N3-(4-(piperidin-1-yl)-2-(4-(1,2,3,4-tetrahydronaphthalen-1-ylcarbamoyl)pyridin-2-yl)phenyl)isophthalamide]
>80% | 1 to 7.94 | < 10 | < 10 | >80% | CN(CCOCCOCCOCCC(=O)N1CCN(CCOCCO)CC1)C(=O)c1cccc(C(=O)Nc2ccc(N3CCCCC3)cc2-c2cc(C(=O)N[C@H]3CCCc4ccccc43)ccn2)c1 [Example 250, 1-N-(2-{2-[2-(3-{4-[2-(2-hydroxyethoxy)ethyl]piperazin-1-yl}-3-oxopropoxy)ethoxy]ethoxy}ethyl)-1-N-methyl-3-N-[4-(piperidin-1-yl)-2-(4-{[(1S)-1,2,3,4-tetrahydronaphthalen-1-yl]carbamoyl}pyridin-2-yl)phenyl]benzene-1,3-dicarboxamide]
>80% | 1 to 7.94 | < 10 | < 10 | >80% | CN(CCN1CCCC[C@H]1C(=O)N(C)CCOCCOCCOCCC(=O)OC(C)(C)C)C(=O)c1cccc(C(=O)Nc2ccc(N3CCCCC3)cc2-c2cc(C(=O)N[C@H]3CCCc4ccccc43)ccn2)c1 [Example 240, tert-butyl 2-methyl-1-((S)-1-(2-(N-methyl-3-(4-(piperidin-1-yl)-2-(4-((S)-1,2,3,4-tetrahydronaphthalen-1-ylcarbamoyl)pyridin-2-yl)phenylcarbamoyl)benzamido)ethyl)piperidin-2-yl)-1-oxo-5,8,11-trioxa-2-azatetradecan-14-oate]
>80% | 1 to 7.94 | < 10 | < 10 | >80% | COCCOCCOCCOCCOCCOCCOCCN(C)C(=O)[C@H]1CCCN(C(=O)c2cccc(C(=O)Nc3ccc(N4CCCCC4)cc3-c3cc(C(=O)N[C@H]4CCCc5ccccc54)ccn3)c2)C1 [Example 255, 2-(2-(3-((S)-3-(2,5,8,11,14,17,20-heptaoxadocosan-22-yl(methyl)carbamoyl)piperidine-1-carbonyl)benzamido)-5-(piperidin-1-yl)phenyl)-N—((S)-1,2,3,4-tetrahydronaphthalen-1-yl)isonicotinamide]
